The values below come from ChEMBL document CHEMBL1201862, “PubChem BioAssay data set” (2004).

Some test systems named below: NCI-H460; HT-29; NCI-H23; CAKI-1; HCC 2998; SNB-19; HCT-15; EKVX; HL-60; SR; HOP-92; SK-OV-3; SK-MEL-5; 786-0; CCRF-CEM; SN12C; OVCAR-5; SF-268; M14; NCI-H226.
What all share (experiment): inhibition of tumour cell growth, NCI panel, 48 h

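Compound exposure: 48 hours, 5 concentrations, 96-well plates. Here, GI50 denotes the concentration required for 50% inhibition of growth.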 Calls of active or inactive are those of the source. Cut-off read from the data, not from the text of the source: active = GI50 up to about 1.1 µM and inactive = higher.

Regarding `Cc1cc(C)c(S(=O)(=O)N[C@@H](/C=C(\Br)CO)C(C)C)c(C)c1`, the GI50 is 27.7 µM (inactive) with NCI-H460; 31 µM (inactive) in the assay on HT-29; 33 µM (inactive) with NCI-H23; 33.2 µM (inactive) in the assay on CAKI-1; 24.5 µM (inactive) with HCC 2998; 56 µM (inactive) in the assay with SNB-19. For the same molecule, the GI50 with HCT-15 was 37.8 µM; in the assay on EKVX it was 35.6 µM (inactive); in the assay with HL-60, 17.9 µM (inactive); in the assay on SR it was 25.1 µM (inactive); in the assay with HOP-92, 23.1 µM (inactive); with SK-OV-3, 50.5 µM (inactive). The GI50 in the assay with SK-MEL-5 is 15.8 µM (inactive); with 786-0, 30.5 µM (inactive); in the assay on CCRF-CEM, 27.3 µM (inactive); in the assay with SN12C, 16.8 µM (inactive); in the assay with OVCAR-5 it was 34.3 µM (inactive); in the assay with SF-268 it was 30.7 µM (inactive). The GI50 with M14 was 30.5 µM (inactive).

Regarding `O=C(N/C(=C\c1cccc([N+](=O)[O-])c1)c1nc2cc([N+](=O)[O-])ccc2[nH]1)c1ccccc1`, the GI50 is 44.4 µM (inactive) in the assay with HT-29; 27.3 µM (inactive) in the assay with NCI-H23; 30.4 µM (inactive) with CAKI-1; 33.5 µM (inactive) with HCC 2998; 45.4 µM (inactive) in the assay on SNB-19; 22.1 µM in the assay on HCT-15. Further, the GI50 in the assay on EKVX is 51.9 µM (inactive); in the assay on SR, 17.1 µM (inactive); with HOP-92, 21.4 µM (inactive); with SK-OV-3, 71.3 µM (inactive); with SK-MEL-5, 20.7 µM (inactive); in the assay with 786-0, 36.1 µM (inactive). Also, the GI50 was 19.8 µM (inactive) in the assay on CCRF-CEM; 39.4 µM (inactive) in the assay on SN12C; 73.3 µM (inactive) in the assay on OVCAR-5; 19.7 µM (inactive) with SF-268; 38.9 µM (inactive) in the assay on M14.

In the case of `CCN1CCC(O)(c2ccc(Cl)cc2)C(C(=O)c2ccc(Cl)cc2)C1` (stereo not drawn), the GI50 with NCI-H460, in the assay on HT-29, in the assay with NCI-H23, in the assay with HCC 2998, in the assay with SNB-19 and in the assay on EKVX was > 100 µM (inactive) in each case. Moreover, the GI50 is > 100 µM (inactive) in the assay on HL-60; 36.6 µM (inactive) in the assay on SR; > 100 µM (inactive) in the assay with HOP-92; > 100 µM (inactive) in the assay with SK-OV-3; > 100 µM (inactive) with SK-MEL-5; > 100 µM (inactive) with 786-0. Further, the GI50 with CCRF-CEM was 49.5 µM (inactive); in the assay with SN12C it was > 100 µM (inactive); in the assay on OVCAR-5, > 100 µM (inactive); in the assay on SF-268, > 100 µM (inactive); in the assay on M14 it was > 100 µM (inactive).

`C=CCN1C(=O)/C(=C/c2ccccc2)N=C1SC1OC(COC(C)=O)C(OC(C)=O)C(OC(C)=O)C1OC(C)=O` (stereo not drawn): the GI50 in the assay on NCI-H460 is 42.8 µM (inactive); in the assay on HT-29 it was 32.7 µM (inactive); in the assay with NCI-H23, 24.9 µM (inactive); in the assay on CAKI-1, 16.3 µM (inactive); in the assay with HCC 2998, 49.7 µM (inactive); in the assay on SNB-19 it was 29.6 µM (inactive). Also, the GI50 in the assay on HCT-15 is 28.1 µM; with EKVX, 15.7 µM (inactive); in the assay with HL-60, 26.5 µM (inactive); in the assay with SR, 4.86 µM (inactive); in the assay on HOP-92, 23.7 µM (inactive); in the assay on SK-OV-3 it was 38.7 µM (inactive). For the same molecule, the GI50 is 23.9 µM (inactive) in the assay with 786-0; 22.5 µM (inactive) in the assay on CCRF-CEM; 24.2 µM (inactive) in the assay with SN12C; 26 µM (inactive) in the assay with OVCAR-5; 21.4 µM (inactive) in the assay with SF-268; 30 µM (inactive) in the assay with M14.

As for `COC(=O)C1=C(c2ccc(OC)c(OC)c2)OC(c2ccc(OC)c(OC)c2)C1` (stereo not drawn), the GI50 with NCI-H460 was 41 µM (inactive); with HT-29, 22.3 µM (inactive); in the assay on NCI-H23, 48.5 µM (inactive); in the assay with NCI-H226, 37 µM (inactive); with HCC 2998 it was 66.1 µM (inactive); in the assay on HCT-15, 25.2 µM. In addition, the GI50 in the assay on EKVX was 39.7 µM (inactive); in the assay on HL-60, 9.82 µM (inactive); in the assay with SR it was 18.5 µM (inactive); in the assay with HOP-92 it was 13.8 µM (inactive); with SK-OV-3 it was 32.6 µM (inactive); in the assay with SK-MEL-5, 15.6 µM (inactive). The GI50 was 31.6 µM (inactive) with 786-0; 31.4 µM (inactive) in the assay on CCRF-CEM; 27.9 µM (inactive) in the assay on SN12C; 32.6 µM (inactive) in the assay with OVCAR-5; 35.6 µM (inactive) in the assay with SF-268; 38.7 µM (inactive) in the assay on M14.

On to `O=C1NC(c2ccccc2)(c2ccccc2)C(=O)N1CCCCCCN1C(=O)NC(c2ccccc2)(c2ccccc2)C1=O`, for which the GI50 was > 100 µM (inactive) in the assay on NCI-H460; 45.8 µM (inactive) with HT-29; 18.2 µM (inactive) with NCI-H23; > 100 µM (inactive) with NCI-H226; 48.5 µM (inactive) in the assay with CAKI-1; > 100 µM (inactive) in the assay on HCC 2998. For the same molecule, the GI50 in the assay with SNB-19 was 12.2 µM (inactive); in the assay on HCT-15 it was above 100 µM; with EKVX, 39.4 µM (inactive); in the assay with HL-60 it was > 100 µM (inactive); with HOP-92, 4.83 µM (inactive); in the assay on SK-OV-3, 26.9 µM (inactive). Further, the GI50 was 19.9 µM (inactive) in the assay with SK-MEL-5; 12.6 µM (inactive) in the assay with 786-0; > 100 µM (inactive) with CCRF-CEM; 58.1 µM (inactive) in the assay with SN12C; > 100 µM (inactive) with OVCAR-5; 21.5 µM (inactive) with SF-268. The GI50 in the assay on M14 was 53.8 µM (inactive).

`O=Cc1cc2c(cc1-c1c(C=O)ccc3c1OCO3)OCO2`: the GI50 in the assay on HT-29 was > 10 µM (inactive); in the assay with NCI-H23, > 10 µM (inactive); with CAKI-1, > 10 µM (inactive); in the assay on HCC 2998, > 10 µM (inactive); in the assay with SNB-19 it was > 10 µM (inactive); in the assay on HCT-15 it was above 10 µM. The GI50 in the assay with HL-60, with SR, in the assay on HOP-92, in the assay on SK-OV-3, in the assay with SK-MEL-5 and in the assay with 786-0 was > 10 µM (inactive) throughout. The GI50 in the assay on CCRF-CEM, with SN12C, in the assay with SF-268 and in the assay with M14 was > 10 µM (inactive) each time.

Regarding `S=P(N1CC1)(N1CC1)N1CC1` [THIOTEPA], the GI50 with NCI-H460 is 5.33 µM (inactive); with HT-29 it was 159 µM (inactive); with NCI-H23, 36.1 µM (inactive); in the assay on NCI-H226, 110 µM (inactive); with CAKI-1 it was 30.3 µM (inactive); in the assay with HCC 2998, 111 µM (inactive). Also, the GI50 is 115 µM (inactive) in the assay with SNB-19; 149 µM in the assay with HCT-15; 234 µM (inactive) with EKVX; 7.45 µM (inactive) in the assay on HL-60; 112 µM (inactive) with HOP-92; 101 µM (inactive) with SK-OV-3. For the same molecule, the GI50 in the assay on SK-MEL-5 was 97.9 µM (inactive); in the assay on 786-0, 39.8 µM (inactive); in the assay on CCRF-CEM, 9.46 µM (inactive); in the assay with SN12C, 35.5 µM (inactive); in the assay on OVCAR-5, 147 µM (inactive); in the assay on SF-268, 39.4 µM (inactive). In addition, the GI50 with M14 was 72.1 µM (inactive).
